Measurements published in article PMC10804683, “Identification of the pyridoxal 5′‐phosphate allosteric site in human pyridox(am)ine 5′‐phosphate oxidase” (Protein Science : A Publication of the Protein Society, 2024).
Positions count from the first letter of the chain named.

How the values were obtained:
[1] = target: T1, human PNPO F48A/E50L/H248N/R258L variant (Homo sapiens, UniProt Q9NVS9, E50L/F48A/H248N/R258L); assay: PLP inhibition kinetics of PNP oxidation, quadruple variant; assay type: biochemical; settings: Na-HEPES pH 7.6, 2 μM enzyme, PLP 0–16 μM
T1 construct: a main form corresponding to the entire protein; made in house; host or cells: E. coli BL21(DE3)
T1 sequence (Q9NVS9 1-261 F48A/E50L/H248N/R258L): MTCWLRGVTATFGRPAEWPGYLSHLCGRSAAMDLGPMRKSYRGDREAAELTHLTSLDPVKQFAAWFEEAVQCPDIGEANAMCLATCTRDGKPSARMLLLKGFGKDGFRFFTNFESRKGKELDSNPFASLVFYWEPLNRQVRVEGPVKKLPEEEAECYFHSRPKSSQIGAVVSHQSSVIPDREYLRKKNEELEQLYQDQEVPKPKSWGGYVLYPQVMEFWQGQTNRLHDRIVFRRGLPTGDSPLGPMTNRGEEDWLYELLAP
Description: (§1) This is a general inhibition mechanism that takes into account the possibility of PLP binding to both the active and allosteric sites. PLP binding at the active site gives a complete, competitive inhibition, whereas PLP binding at the allosteric site yields a substrate‐enzyme‐PLP ternary complex that is still catalytically active, although k CAT is reduced by a coefficient whose value is around 0.15. A thorough inhibition kinetic characterization was carried out with the wild type, F48A, F48A/E50L/R258L, and F48A/E50L/H248N/R258L PNPO forms, so as to evaluate the effect of the variations on the allosteric properties of the enzyme. The initial velocity of PNP conversion into PLP was measured in Na‐HEPES buffer (in which PLP is allowed to accumulate) by varying substrate concentration at different, fixed exogenous PLP concentrations, using 2 μM enzyme. A series of saturation curves were obtained that were used to fit the Michaelis–Menten equation (Figure 5), acquiring apparent V MAX and K M values as a function of PLP concentration. […]
(§2) FIGURE 5 Characterization of PLP inhibition. Upper panels: The initial velocity of the reaction was measured with 2 μM wild type (a), and the F48A (b), F48A/E50L/R258L (c), and F48A/E50L/H248N/R258L (d) PNPO variants, varying PNP concentration while keeping exogenous PLP fixed at different concentrations (0, 0.25, 0.5, 1, 2, 4, 8, and 16 μM). […]

[2] = target: T2, human PNPO F48A variant (Homo sapiens, UniProt Q9NVS9, F48A); assay: PLP inhibition kinetics of PNP oxidation, F48A; assay type: biochemical; set-up: a main form corresponding to the entire protein; made in house; host or cells: E. coli BL21(DE3); settings: F48A (behavior much less marked than wild type); Na-HEPES pH 7.6, 2 μM enzyme, PLP 0–16 μM
T2 sequence (Q9NVS9 1-261 F48A): T1 sequence (Q9NVS9 1-261 F48A/E50L/H248N/R258L) with L50E, N248H, L258R
Description: as §1, §2

[3] = target: T3, human PNPO wild type (Homo sapiens, UniProt Q9NVS9); set-up: a main form corresponding to the entire protein; made in house; host or cells: E. coli BL21(DE3); method as in Barile et al., [2020]; settings: substrate-enzyme-PLP ternary complex, ref Barile et al., [2020]; cited from earlier work
T3 sequence (Q9NVS9 1-261): T1 sequence (Q9NVS9 1-261 F48A/E50L/H248N/R258L) with A48F, L50E, N248H, L258R

- type of inhibition of PNP oxidation by PLP [1]: pure competitive inhibition
SMILES: Cc1ncc(COP(=O)(O)O)c(C=O)c1O [PLP, pyridoxal 5′‐phosphate]
- type of inhibition of PNP oxidation by PLP [2]: typical hyperbolic increase of 1/V MAX and the parabolic increase of K M/V MAX
- coefficient by which kCAT is reduced with PLP bound at the allosteric site [3]: around 0.15
